Source: ChEMBL document CHEMBL4251724, “Ypaoamides B and C, Linear Lipopeptides from an Okeania sp. Marine Cyanobacterium” (J Nat Prod, 2018)
Active and inactive are the calls of the source. The rule behind the calls is not given here.

Key:
Format in all cases: cell-based
L6 [1] = assay: Activation of AMPK in rat L6 cells assessed as glucose uptake after 16 hrs
L6 [2] = assay: Cytotoxicity against rat L6 cells assessed as reduction in cell viability at 10 to 40 uM after 16 hrs by MTT assay; conditions: l6, 16 h
L6 [3] = assay: Activation of AMPK in rat L6 cells assessed as glucose uptake at 40 uM in presence of AMPK inhibitor compound C after 8 hrs
L6 [4] = assay: Activation of AMPK in rat L6 cells assessed as increase in AMPK phosphorylation at 40 uM by Western blot analysis

SMILES	Activity (L6 [1])	Activity (L6 [2])	Activity (L6 [3])	Activity (L6 [4])
CO/C(=C/C(=O)N1C(=O)C=C[C@@H]1C)C/C(=C/Cl)CNC(=O)CCCCC(C)(C)C	Dose-dependent effect	Non-Toxic	–	–
CO/C(=C/C(=O)N1C(=O)C=C[C@@H]1CC(C)C)CCNC(=O)CCCCC(C)(C)C	Dose-dependent effect	Non-Toxic	inactive	Active
